Reference: US9814672B2, “Echogenic vehicle for clinical delivery of plasminogen activator and other fibrin-binding therapeutics to thrombi” (priority 2007, dated 2017)

Experiments:
[1] = tPA enzyme activity after PPACK inactivation, paranitroanilide-substrate method; type: biochemical; conditions: S.E., n=3
Experimental: Reconstituted tPA was incubated with a fivefold molar excess of PPACK in 0.2 M L-arginine in 0.05M phosphate buffer, pH 7.2, with 0.01% Tween 20 for 1 hour at room temperature, followed by dialysis against reaction buffer to remove unreacted PPACK. A control preparation was carried through the procedure without PPACK and all procedures involving PPACK were protected from light. Enzyme activity in PPACK-treated and control tPA preparations was measured with a […] paranitroanilide-substrate method (Ranby and Wallen, 1981).

[2] = system: whole porcine blood clots; experiment: In vitro thrombolysis, percent clot mass loss; conditions: 1 MHz CW, 2 W/cm^2, 2 min vs. no ultrasound
Experimental: Whole porcine blood clots were used to evaluate thrombolysis. Blood was obtained from non-heparinized Yucatan miniswine. The miniswine were 6-8 weeks old and weighed 28.5±6.5 lb. Baseline blood analysis data, including complete blood count, prothrombin time, activated partial thromboplastin time, D-dimer, and fibrinogen were obtained to ensure normal clotting parameters. Whole blood clots were made by aliquoting 1.5 ml fresh porcine blood into 1.3-cm inner diameter vacutainer tubes; the tubes were incubated in a 37° C. water bath for 3 h. The clots were then stored at 4° C. until use, which ensured complete clot maturation and retraction. This type of clot is fairly similar to physiologic venous clots. Most miniswine used in this study were slightly anemic (hematocrit of 27.8±3.0%). Only donors with values of <250 ng/ml for the D-dimer test, <15 s for prothrombin time, <18 s for activated partial thromboplastin time, and <300 mg/dl fibrinogen concentration were considered acceptable. The resulting clots were dark red, cylindrical, and weighed 0.47±0.11 g. All unused clots were discarded after 2 weeks.
Whole porcine blood clots were blotted gently and weighed using an analytical balance. […]
Porcine clots were treated with 1 MHz continuous wave (CW) ultrasound with an intensity of 2 W/cm^2, for 2 min (Sonitron 1000; Rich-Mar). The calculated peak negative acoustic pressure output was 0.12 MPa. […]

fibrinogen αC domains = biological target: T1, fibrinogen αC domains (Homo sapiens, UniProt P02671); conditions: Tsurupa and Medved 2001; cited from earlier work
T1 sequence (P02671 240-629 limits assumed): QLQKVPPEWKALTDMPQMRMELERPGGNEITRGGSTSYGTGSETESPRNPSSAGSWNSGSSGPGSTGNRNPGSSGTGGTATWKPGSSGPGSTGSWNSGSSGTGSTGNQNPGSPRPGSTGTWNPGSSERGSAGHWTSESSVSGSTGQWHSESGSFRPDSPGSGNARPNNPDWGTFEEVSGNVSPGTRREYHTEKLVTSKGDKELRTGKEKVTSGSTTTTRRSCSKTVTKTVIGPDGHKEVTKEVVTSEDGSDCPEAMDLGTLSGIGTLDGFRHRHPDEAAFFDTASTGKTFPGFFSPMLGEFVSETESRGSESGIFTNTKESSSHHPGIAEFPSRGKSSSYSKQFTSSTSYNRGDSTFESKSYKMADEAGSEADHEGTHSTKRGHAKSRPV

occluded femoral artery = conditions: tPA infusion with transcutaneous ultrasound; cited from earlier work

Percent Starting Activity [1] [%]	Substance	effect of ultrasound exposure on thrombolysis [2]	Kd (fibrinogen αC domains) [µM]	decrease in time for recanalization (occluded femoral artery) [%]
4.7 ± 2.9	tPA(P): Human recombinant tPA (Activase®) irreversibly inhibited with D-phe-L-pro-L-arg-chloromethyl ketone (PPACK)			
	tPA: Recombinant tissue-plasminogen activator (Activase®, Genentech Inc.), used as the thrombolytic agent [reference compound]	no significant augmentation of thrombolysis	0.033 ± 0.005	80
